Results: US9353089B2, “Compositions and methods for the treatment of malaria” (Saint Louis University, priority 2013, dated 2016)
Like-named read-outs stand apart in the source and are kept apart here.

Columns and labels:
[1] = target: Plasmepsin-2 (PM-2; Plm II) (Plasmodium falciparum (isolate HB3), UniProt P46925); experiment: Plasmepsin-2 enzyme inhibition assay; format: biochemical; conditions: read-out: PM-2 IC50
Procedure: Plasmepsin-2 (PM-2; Plm II) and Plasmepsin (PM-4; Plm IV) expression and purification was performed following the published protocols (Istvan E S and Goldberg D E, 2005). The final purified protein was activated by diluting the protein to 0.3 mg/mL in activating buffer (0.1 M citrate pH 4.5, 0.1% Tween-20, 50 mM dithiothreitol) and incubated at room temperature for 40 min, then the activated enzyme was diluted in assay buffer (50 mM sodium acetate pH 4.7, 0.01% Tween-20). The enzymatic inhibition reaction was performed in 384 well plates with a total volume of 20 μl. 10 μl of diluted PM-2 or PM-4 enzyme was added to the 384-well plate except blank wells (blank wells add 10 μL of assay buffer) and 20 nL of serials of diluted 1000× compounds were added to the wells with 520 Echo® Liquid Handling System (Labcyte Inc.). 10 μL PM-2 peptide substrate (AnaSpec, Cat#, 62050) with assay buffer was then added to final concentration of 20 μM to start the reaction. After incubation the reaction at room temperature for 60 min, the fluorescence intensity at Ex/Em=360 nm/535 nm was measured using EnVision multilabel plate reader (Perkin-Elmer). The IC50 values were obtained using Graph Pad Prism 4 and are reported in Tables 8 and 9 below as PM-2 IC50 values.

[2] = tested on: Plasmodium falciparum 3D7 (CQ-sensitive); experiment: In vitro antimalarial assay (malaria SYBR Green I-based fluorescence, MSF), 3D7; format: cell-based
Procedure: Stock solutions of each test drug were prepared in DMSO at a concentration of 20 mM. The drug solutions were serially diluted with culture medium and distributed to asynchronous parasite cultures on 96-well plates in quadruplicate in a total volume of 100 μL to achieve 0.5% parasitemia with a 2% hematocrit in a total volume of 100 pt. […] After incubation, 100 μL of lysis buffer with 0.2 μL/mL SYBR Green I was added to each well.
Antimalarial potency of compounds was determined by this technique for both Plasmodium falciparum 3D7 (CQ-sensitive) and Dd2 (multi-drug resistant) strains.

[3] = 3D7, Table 13, read-out: 3D7 IC50
[4] = 3D7, Table 12, read-out: 3D7 IC50
[5] = 3D7, Table 11, read-out: Pf 3D7 IC50

Plasmepsin-2 (PM-2; Plm II), sequence (P46925 125-453 limits assumed): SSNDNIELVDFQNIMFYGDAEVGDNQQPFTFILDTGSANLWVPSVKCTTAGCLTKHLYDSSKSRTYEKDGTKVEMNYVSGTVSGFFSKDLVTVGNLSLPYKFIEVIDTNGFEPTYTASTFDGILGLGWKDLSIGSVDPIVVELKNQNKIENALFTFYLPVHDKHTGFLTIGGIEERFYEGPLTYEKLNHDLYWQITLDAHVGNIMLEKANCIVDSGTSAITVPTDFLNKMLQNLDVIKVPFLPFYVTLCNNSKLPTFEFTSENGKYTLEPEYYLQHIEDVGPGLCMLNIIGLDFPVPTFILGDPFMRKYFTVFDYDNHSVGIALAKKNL

IC50 [2, 3] [nM]	SMILES	IC50 ([1]; Table 13) [nM]	also measured
2360	N=C1NC(c2ccccc2Cl)(C2CC2)C(=O)N1C1CCOCC1 (stereo not drawn) [Example 500, 5-(2-chlorphenyl)-5-cyclopropyl-2-imino-3-(tetrahydro-2H-pyran-4-yl)imidazolidin-4-one]		
5230	COc1ccc(C2(c3ccc(OC)cc3)NC(=N)N(Cc3ccccc3F)C2=O)cc1 [Example 306, 3-[(2-fluorophenyl)-methyl]-2-imino-5,5-bis(4-methoxyphenyl)-imidazolidin-4-one]		
708	COc1ccc(C2(c3ccc(OC)cc3)NC(=N)N(Cc3cccc(OC)c3)C2=O)cc1 [Example 236, 2-imino-5,5-bis(4-methoxyphenyl)-3-[(3-methoxyphenyl)-methyl]imidazolidin-4-one]		
1390	COc1cccc(C2(C3CC3)NC(=N)N(C3CCOCC3)C2=O)c1 (stereo not drawn) [Example 499, 5-cyclopropyl-2-imino-5-(3-methoxyphenyl)-3-(tetrahydro-2H-pyran-4-yl)imidazolidin-4-one]		
2740	COc1ccc(C2(c3ccc(OC)cc3)NC(=N)N(C3CCN(Cc4ccccc4)CC3)C2=O)cc1 [Example 250, 3-(1-benzylpiperidin-4-yl)-2-imino-5,5-bis(4-methoxyphenyl)-imidazolidin-4-one]		
780	N=C1NC(c2ccc(O)cc2)(C2CC2)C(=O)N1C1CCCCC1 (stereo not drawn) [Example 551, 3-cyclohexyl-5-cyclopropyl-5-(4-hydroxyphenyl)-2-iminoimidazolidin-4-one]		
828	COc1cccc(C2(c3cccc(OCc4ccccc4)c3)NC(=N)N(C3CCCCC3)C2=O)c1 (stereo not drawn) [Example 230]		
1990	N#Cc1cccc(-c2cccc(C3(c4ccccc4)NC(=N)N(C4CCOCC4)C3=O)c2)c1 (stereo not drawn) [Example 413, 3′-(2-imino-5-oxo-4-phenyl-1-(tetrahydro-2H-pyran-4-yl)imidazolidin-4-yl)-[1,1′-biphenyl]-3-carbonitrile]		
640	COc1ccc(C2(C3CCCC3)NC(=N)N(C3CCCCC3)C2=O)cc1 (stereo not drawn) [Example 493, 3-cyclohexyl-5-cyclopentyl-2-imino-5-(4-methoxyphenyl)imidazolidin-4-one]		
515	COc1ccc(C2(C3CC3)NC(=N)N(C3CCOCC3)C2=O)cc1-c1cccnc1 (stereo not drawn) [Example 490, 5-cyclopropyl-2-imino-5-(4-methoxy-3-(pyridin-3-yl)phenyl)-3-(tetrahydro-2H-pyran-4-yl)imidazolidin-4-one]		
2870	N=C1NC(c2cccc(Oc3ccccc3)c2)(C2CC2)C(=O)N1C1CCCCC1 (stereo not drawn) [Example 570, 3-cyclohexyl-5-cyclopropyl-2-imino-5-(3-phenoxyphenyl)imidazolidin-4-one]		
> 20000	N=C1NC(c2ccccc2O)(C2CC2)C(=O)N1C1CCCCC1 (stereo not drawn) [Example 573, 3-cyclohexyl-5-cyclopropyl-5-(2-hydroxyphenyl)-2-iminoimidazolidin-4-one]		
1540	COc1cc(C2(C3CCCCC3)NC(=N)N(C3CCOCC3)C2=O)ccc1Cl (stereo not drawn) [Example 501, 5-(4-chloro-3-methoxyphenyl)-5-cyclohexyl-2-imino-3-(tetrahydro-2H-pyran-4-yl)imidazolidin-4-one]		
4080	CC(C)COc1ccc(C2(c3ccc(OCC(C)C)cc3)NC(=N)N(C3CCOCC3)C2=O)cc1 [Example 390, 2-imino-5,5-bis[4-(2-methylpropoxy)phenyl]-3-(oxan-4-yl)imidazolidin-4-one]		
810	CC#Cc1cncc(-c2cccc(C3(C4CC4)NC(=N)N(C4CCCCC4)C3=O)c2)c1 (stereo not drawn) [Example 515, 3-cyclohexyl-5-cyclopropyl-2-imino-5-(3-(5-(prop-1-yn-1-yl)pyridin-3-yl)phenyl)imidazolidin-4-one]		
724	COc1ccc(C2(c3ccc(OC)cc3)NC(=N)N(C3CCC(C)CC3)C2=O)cc1 (stereo not drawn) [Example 270, 2-imino-5,5-bis(4-methoxyphenyl)-3-(4-methylcyclohexyl)imidazolidin-4-one]		
280	N=C1NC(c2cccc(-c3cncc(Cl)c3)c2)(C2CCCCC2)C(=O)N1C1CCOCC1 (stereo not drawn) [Example 516, 5-(3-(5-chloropyridin-3-yl)phenyl)-5-cyclohexyl-2-imino-3-(tetrahydro-2H-pyran-4-yl)imidazolidin-4-one]		

Second part, the compound before the results:

SMILES	IC50 [2, 3] [nM]	IC50 ([1]; Table 13) [nM]	also measured
COc1ccc(C2(c3ccc(OC)cc3)NC(=N)N(C3CCCCCC3)C2=O)cc1 [Example 220, 3-cycloheptyl-2-imino-5,5-bis(4-methoxyphenyl)-imidazolidin-4-one]	427	2.37	IC50 ([2]; 3D7, Table 10, read-out: Pf3D7 IC50): 427 nM
COc1cccc(-c2cccc(C3(C4CC4)NC(=N)N(C)C3=O)c2)c1 (stereo not drawn) [Example 330, 5-cyclopropyl-2-imino-5-[3-(3-methoxyphenyl)-phenyl]-3-methyl-imidazolidin-4-one]			IC50 ([1]; Table 12): 751 nM; IC50 [2, 4]: ~2400 nM
COc1ccc(C2(c3ccc(OC)cc3)NC(=N)N(Cc3c(C)cccc3C)C2=O)cc1 [Example 278, 3-[(2,6-dimethyl-phenyl)methyl]-2-imino-5,5-bis(4-methoxyphenyl)-imidazolidin-4-one]	1040	2.76	
COc1ccc(C2(c3ccccc3)NC(=N)N(C3CCCCC3)C2=O)cc1 (stereo not drawn) [Example 141, 3-cyclohexyl-2-imino-5-(4-methoxyphenyl)-5-phenylimidazolidin-4-one]	533	10.6	IC50 [2, 5]: 533 nM
N=C1NC(c2ccccc2)(c2ccccc2)C(=O)N1C1CCOCC1 [Example 198, 2-imino-3-(oxan-4-yl)-5,5-diphenyl-imidazolidin-4-one]	> 2500	118	
COc1cccc(C2(c3cccc(OC)c3)NC(=N)N(C3CC3)C2=O)c1 [Example 167, 3-cyclopropyl-2-imino-5,5-bis(3-methoxyphenyl)-imidazolidin-4-one]	9320	2830	
COc1ccc(C2(c3ccc(OC)cc3)NC(=N)N(Cc3ccncc3)C2=O)cc1 [Example 203, 2-imino-5,5-bis(4-methoxyphenyl)-3-(pyridin-4-ylmethyl)-imidazolidin-4-one]	1130	14.9	
COc1ccc(C2(c3cccc(-c4ccccn4)c3)NC(=N)N(C3CCCCC3)C2=O)cc1 (stereo not drawn) [Example 210, 3-cyclohexyl-2-imino-5-(4-methoxyphenyl)-5-[3-(pyridin-2-yl)-phenyl]imidazolidin-4-one]	1810	5.47	IC50 [2, 5]: 1810 nM
COc1cccc(C2(c3cccc(-c4cccnc4)c3)NC(=N)N(C3CCCCC3)C2=O)c1 (stereo not drawn) [Example 214, 3-cyclohexyl-2-imino-5-(3-methoxyphenyl)-5-[3-(pyridin-3-yl)phenyl]-imidazolidin-4-one]	787	12	IC50 [2, 5]: 787 nM
COc1cccc(-c2cccc(C3(c4ccccc4)NC(=N)N(C)C3=O)c2)c1 (stereo not drawn) [Example 327, 2-imino-5-[3-(3-methoxyphenyl)phenyl]-3-methyl-5-phenyl-imidazolidin-4-one]			IC50 ([1]; Table 12): 240 nM; IC50 [2, 4]: 4970 nM
COc1ccc(C2(c3cccc(-c4ccccc4)c3)NC(=N)N(C3CCCCC3)C2=O)cc1 (stereo not drawn) [Example 177, 3-cyclohexyl-2-imino-5-(4-methoxyphenyl)-5-(3-phenylphenyl)-imidazolidin-4-one]	1490	11.7	IC50 [2, 5]: 1490 nM
N=C1NC(c2ccc(OC(F)(F)F)cc2)(c2ccc(OC(F)(F)F)cc2)C(=O)N1C1CCCCC1 [Example 201, 3-cyclohexyl-2-imino-5,5-bis[4-(trifluoromethoxy)-phenyl]imidazolidin-4-one]	2200	55.1	IC50 [2, 5]: 2200 nM
CN1C(=N)NC(c2ccccc2)(c2cccc(-c3cccnc3)c2)C1=O (stereo not drawn) [Example 135, 2-imino-3-methyl-5-phenyl-5-[3-(pyridin-3-yl)phenyl]-imidazolidin-4-one]			IC50 ([1]; Table 12): 1010 nM
CC(C)COc1cccc(C2(c3cccc(-c4cccnc4)c3)NC(=N)N(C3CCOCC3)C2=O)c1 (stereo not drawn) [Example 404, 2-imino-5-(3-isobutoxyphenyl)-5-(3-(pyridin-3-yl)phenyl)-3-(tetrahydro-2H-pyran-4-yl)imidazolidin-4-one]			inhibition of growth at 1 µM ([2]; 3D7, 72 h, read-out: 3D7 % inh @ 1 μM): 7%
N=C1NC(c2cccc(O)c2)(C2CC2)C(=O)N1C1CCOCC1 (stereo not drawn) [Example 519, 5-cyclopropyl-5-(3-hydroxyphenyl)-2-imino-3-(tetrahydro-2H-pyran-4-yl)imidazolidin-4-one]	5650		
CC(C)COc1ccc(C2(c3cccc(-c4cccnc4)c3)NC(=N)N(C3CCOCC3)C2=O)cc1 (stereo not drawn) [Example 412, 2-imino-5-(4-isobutoxyphenyl)-5-(3-(pyridin-3-yl)phenyl)-3-(tetrahydro-2H-pyran-4-yl)imidazolidin-4-one]	4210		
